Assay results from PubChem BioAssay AID624124 (The Scripps Research Institute Molecular Screening Center, 2012).

target: Tyrosine-protein kinase ABL1 (Homo sapiens) + Ras and Rab interactor 1 (Homo sapiens) (UniProt P00519+Q13671); assay: Rin1/ABL1 binding disruption, potency – biochemical, TR-FRET, round 1, late-stage follow-up (AID 624124); conditions: TR-FRET Rin1-Abl binding assay
Sequence (P00519 whole entry, looked up): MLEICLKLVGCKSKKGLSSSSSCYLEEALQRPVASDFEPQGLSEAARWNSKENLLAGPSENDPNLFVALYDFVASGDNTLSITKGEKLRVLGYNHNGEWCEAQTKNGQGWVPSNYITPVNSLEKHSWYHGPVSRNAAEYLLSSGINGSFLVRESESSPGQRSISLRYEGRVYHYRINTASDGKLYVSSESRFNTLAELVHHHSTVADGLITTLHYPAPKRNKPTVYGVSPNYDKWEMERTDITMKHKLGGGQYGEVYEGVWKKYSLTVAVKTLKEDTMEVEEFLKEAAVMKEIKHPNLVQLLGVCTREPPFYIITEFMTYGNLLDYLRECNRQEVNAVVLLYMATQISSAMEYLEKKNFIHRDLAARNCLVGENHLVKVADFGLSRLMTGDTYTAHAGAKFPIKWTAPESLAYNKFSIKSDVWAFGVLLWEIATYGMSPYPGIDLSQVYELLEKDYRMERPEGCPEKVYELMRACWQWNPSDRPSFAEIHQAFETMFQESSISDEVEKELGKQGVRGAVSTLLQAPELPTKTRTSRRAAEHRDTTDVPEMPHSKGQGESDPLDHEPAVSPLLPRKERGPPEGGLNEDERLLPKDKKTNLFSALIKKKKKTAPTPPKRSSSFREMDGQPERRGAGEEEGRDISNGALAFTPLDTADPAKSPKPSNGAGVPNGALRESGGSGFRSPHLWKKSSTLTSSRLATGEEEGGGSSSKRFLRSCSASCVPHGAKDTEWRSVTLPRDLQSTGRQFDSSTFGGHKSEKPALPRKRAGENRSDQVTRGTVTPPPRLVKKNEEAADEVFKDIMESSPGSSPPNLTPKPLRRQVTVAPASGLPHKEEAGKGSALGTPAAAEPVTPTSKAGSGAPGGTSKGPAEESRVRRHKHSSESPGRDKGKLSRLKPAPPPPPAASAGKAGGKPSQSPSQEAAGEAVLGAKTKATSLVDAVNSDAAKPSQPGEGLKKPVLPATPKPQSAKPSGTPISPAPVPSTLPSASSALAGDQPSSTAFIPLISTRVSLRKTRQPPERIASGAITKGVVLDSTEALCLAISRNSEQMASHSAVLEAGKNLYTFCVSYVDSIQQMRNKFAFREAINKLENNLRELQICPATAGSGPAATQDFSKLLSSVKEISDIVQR
Sequence (Q13671 whole entry, looked up): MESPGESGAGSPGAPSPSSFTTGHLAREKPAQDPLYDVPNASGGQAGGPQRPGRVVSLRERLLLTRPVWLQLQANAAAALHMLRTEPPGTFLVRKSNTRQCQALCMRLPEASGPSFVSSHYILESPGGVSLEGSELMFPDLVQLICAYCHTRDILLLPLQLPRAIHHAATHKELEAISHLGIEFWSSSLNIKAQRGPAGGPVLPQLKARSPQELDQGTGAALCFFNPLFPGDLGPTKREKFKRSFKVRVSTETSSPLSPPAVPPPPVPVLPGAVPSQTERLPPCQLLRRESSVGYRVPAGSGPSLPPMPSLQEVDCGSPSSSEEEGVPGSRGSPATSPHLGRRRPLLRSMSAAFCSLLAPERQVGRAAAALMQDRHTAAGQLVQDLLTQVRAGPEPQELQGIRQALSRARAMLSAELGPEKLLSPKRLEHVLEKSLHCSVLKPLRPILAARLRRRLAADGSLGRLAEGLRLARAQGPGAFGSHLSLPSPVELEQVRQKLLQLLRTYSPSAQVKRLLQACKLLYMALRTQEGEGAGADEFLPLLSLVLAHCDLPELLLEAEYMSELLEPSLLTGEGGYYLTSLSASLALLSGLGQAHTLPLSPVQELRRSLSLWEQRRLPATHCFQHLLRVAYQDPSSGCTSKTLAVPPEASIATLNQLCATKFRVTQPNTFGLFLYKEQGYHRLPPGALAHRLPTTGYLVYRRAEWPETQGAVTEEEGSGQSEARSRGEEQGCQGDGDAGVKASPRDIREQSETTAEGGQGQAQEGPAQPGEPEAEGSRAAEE

IC50	Structure (SMILES)
620 nM	CN(C(=O)c1ccc(NC(=O)Cc2ccc(NC(=O)C3CCN(C(=O)c4ccccc4)CC3)cc2)cc1)C1CC1
3670 nM	COc1ccc(C(=O)N2CCC(C(=O)Nc3ccc(CC(=O)Nc4ccc(C(=O)N(C)C5CC5)cc4)cc3)CC2)cc1
1060 nM	CN(C(=O)c1ccc(NC(=O)Cc2ccc(NC(=O)C3CCN(C(=O)c4ccc(F)cc4)CC3)cc2)cc1)C1CC1
1350 nM	CN(C(=O)c1ccc(NC(=O)Cc2ccc(NC(=O)C3CCN(C(=O)c4cccc(F)c4)CC3)cc2)cc1)C1CC1
